Data on 38 compounds can be found in ChEMBL document CHEMBL4190311, “Discovery of cycloalkyl-fused N-thiazol-2-yl-benzamides as tissue non-specific glucokinase activators: Design, synthesis, and biological evaluation” (Eur J Med Chem, 2017).

The source made the active and inactive calls. The rule behind the calls is not given here. Some results are limits rather than exact numbers.

Experiment [1] concerns the target T1, Hexokinase-4 (Homo sapiens, UniProt P35557).
T1 sequence (P35557 whole entry): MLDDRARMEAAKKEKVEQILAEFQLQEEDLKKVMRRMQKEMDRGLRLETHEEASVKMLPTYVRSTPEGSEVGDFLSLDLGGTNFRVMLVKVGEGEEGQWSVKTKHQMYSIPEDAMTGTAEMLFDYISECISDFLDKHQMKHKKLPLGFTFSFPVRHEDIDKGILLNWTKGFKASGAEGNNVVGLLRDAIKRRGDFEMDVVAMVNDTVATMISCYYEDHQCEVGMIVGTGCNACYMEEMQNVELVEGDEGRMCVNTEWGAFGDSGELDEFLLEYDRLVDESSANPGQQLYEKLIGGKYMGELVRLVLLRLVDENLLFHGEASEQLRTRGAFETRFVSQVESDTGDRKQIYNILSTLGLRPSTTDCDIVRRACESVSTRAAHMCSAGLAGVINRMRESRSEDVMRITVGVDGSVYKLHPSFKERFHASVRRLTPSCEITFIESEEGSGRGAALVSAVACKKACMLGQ
In words: Activation of recombinant human liver glucokinase 2 assessed as […] in presence of 5 mM glucose by G6PDH coupled assay.

For experiment [2], the system named is Hepatocyte. In words: Increase in glucose uptake in mouse primary hepatocytes assessed as glucose uptake level at 20 uM after 24 hrs by glucose oxidase method relative to control. It counts as functional.
Experiment [3] concerns the target T2, Hexokinase-4 (Rattus norvegicus) (UniProt P17712).
T2 sequence (whole entry): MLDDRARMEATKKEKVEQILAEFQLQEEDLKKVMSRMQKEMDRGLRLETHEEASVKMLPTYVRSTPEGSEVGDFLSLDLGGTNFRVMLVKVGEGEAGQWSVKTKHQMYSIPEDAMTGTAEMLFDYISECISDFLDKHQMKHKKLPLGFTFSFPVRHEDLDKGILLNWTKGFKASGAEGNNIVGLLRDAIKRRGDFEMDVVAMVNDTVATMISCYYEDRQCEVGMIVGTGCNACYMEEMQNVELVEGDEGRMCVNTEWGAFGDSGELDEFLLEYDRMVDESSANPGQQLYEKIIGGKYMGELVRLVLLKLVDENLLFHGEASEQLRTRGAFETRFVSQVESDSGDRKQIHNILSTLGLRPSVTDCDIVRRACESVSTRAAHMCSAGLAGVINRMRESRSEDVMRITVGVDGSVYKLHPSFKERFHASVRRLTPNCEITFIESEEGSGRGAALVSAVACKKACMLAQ
The experiment in a line: Activation of glucokinase in rat INS1(832/13) cells assessed as increase in glucose sensitive insulin secretion at 20 uM after 2 hrs in presence of 5.5 mM glucose by AlphaLISA method relative to control. It counts as cell-based. On the technique in general: Bead proximity is the source of the signal in Alpha formats.

As for `CC(C)(C)OC(=O)N1CCc2nc(NC(=O)c3cc(OCC4CCCC4)cc(Oc4ccc(S(C)(=O)=O)cc4)c3)sc2C1`, the EC50 (as a rule, the concentration at which the effect is half-maximal) in experiment [1] was more than 10000 nM.
Same read-out and setting: the result for `COCC(C)Oc1cc(Oc2ccc(S(C)(=O)=O)cc2)cc(C(=O)Nc2nc3c(s2)CN(c2cccnc2)CC3)c1` (stereo unspecified) reads 1090 nM.
Turning to `COCC(C)Oc1cc(Oc2ccc(C(=O)N3CCC3)nc2)cc(C(=O)Nc2nc3c(s2)CN(C(=O)OC(C)(C)C)CC3)c1` (stereo unspecified), the EC50 in experiment [1] is 870 nM. The outcome in experiment [2] was inactive. Moreover, the fold change (FC) in experiment [3] was found to be 5.4.
For the compound `CCS(=O)(=O)c1ccc(Oc2cc(OC(C)COC)cc(C(=O)Nc3nc4c(s3)CN(C(=O)OC(C)(C)C)CC4)c2)cc1` (stereo unspecified), in experiment [1], the EC50 turned out to be 140 nM. Also, the Activity in experiment [2] was 34%. Further, in experiment [3], the “fold change (FC)” value was “inactive”.
Take `COCC(C)Oc1cc(Oc2ccc(S(C)(=O)=O)cc2)cc(C(=O)Nc2nc3c(s2)CN(C)CC3)c1` (stereo unspecified): the EC50 in experiment [1] came out at 8420 nM.
On to `COCC(C)Oc1cc(Oc2ccc(S(C)(=O)=O)cc2)cc(C(=O)Nc2nc3c(s2)CN(C(=O)OC(C)(C)C)CC3)c1` (stereo unspecified), for which, in experiment [1], the EC50 was determined as 320 nM. For the same compound, the Activity in experiment [2] amounted to 36%. Moreover, the fold change (FC) in experiment [3] was 1.72.
Take `COCC(C)Oc1cc(Oc2ccc(S(C)(=O)=O)cc2)cc(C(=O)Nc2nc3c(s2)CN(c2ccccc2)CC3)c1` (stereo unspecified): in experiment [1], the EC50 was more than 10000 nM.
The same measure, in the same setting: for `COCC(C)Oc1cc(Oc2ccccc2S(C)(=O)=O)cc(C(=O)Nc2nc3c(s2)CN(C(=O)OC(C)(C)C)CC3)c1` (stereo unspecified) the value was more than 10000 nM.
As for `CC(C)(C)OC(=O)N1CCc2nc(NC(=O)c3cc(Oc4ccc(S(C)(=O)=O)cc4)cc(OC4CCCCC4)c3)sc2C1`, the EC50 in experiment [1] came out at 550 nM. Besides, the Activity in experiment [2] is reported as 29%. The “fold change (FC)” value in experiment [3] is “inactive”.
Regarding `COC[C@H](C)Oc1cc(Oc2ccc(C(=O)N3CCC3)cc2)cc(C(=O)Nc2nc3c(s2)CNCC3)c1`, the EC50 in experiment [1] was 1130 nM.
On the same count and under the same terms, the result for `COCC(C)Oc1cc(Oc2ccc(S(=O)(=O)C3CC3)cc2)cc(C(=O)Nc2nc3c(s2)CN(C(=O)OC(C)(C)C)CC3)c1` (stereo unspecified) reads 230 nM.
As to `COC[C@@H](C)Oc1cc(Oc2ccc(C(=O)N3CCC3)cc2)cc(C(=O)Nc2nc3c(s2)CN(C(=O)OC(C)(C)C)CC3)c1`, in experiment [1], the concentration for a half-maximal effect (EC50) amounted to 2600 nM.
`COCC(C)Oc1cc(Oc2ccc(S(C)(=O)=O)cc2)cc(C(=O)Nc2nc3c(s2)CN(Cc2ccccc2)CC3)c1` (stereo unspecified): the EC50 in experiment [1] was more than 10000 nM.
In the case of `COCC(C)Oc1cc(Oc2cccc(S(C)(=O)=O)c2)cc(C(=O)Nc2nc3c(s2)CN(C(=O)OC(C)(C)C)CC3)c1` (stereo unspecified), the EC50 in experiment [1] was 820 nM. Also, the Activity in experiment [2] amounted to 25%. Moreover, in experiment [3], the fold change (FC) was 1.14.
The like results for `COC[C@H](C)Oc1cc(Oc2ccc(C(=O)N3CCC3)cc2)cc(C(=O)Nc2nc3c(s2)CN(c2ccccn2)CC3)c1` were, in that order, 290 nM, 15% and 2.47.
With `COCCOc1cc(Oc2ccc(S(C)(=O)=O)cc2)cc(C(=O)Nc2nc3c(s2)CN(C(=O)OC(C)(C)C)CC3)c1`, the concentration for a half-maximal effect (EC50) in experiment [1] turned out to be 2230 nM.
`COCCN1CCc2nc(NC(=O)c3cc(Oc4ccc(C(=O)N5CCC5)cc4)cc(O[C@@H](C)COC)c3)sc2C1`: the EC50 in experiment [1] was 210 nM. Besides, in experiment [2], the Activity is reported as 13%. Further, the fold change (FC) in experiment [3] came out at 6.07.
For `COC[C@H](C)Oc1cc(Oc2ccc(C(=O)N3CCC3)cc2)cc(C(=O)Nc2nc3c(s2)CN(C(=O)N(C)C)CC3)c1`, in that order: 500 nM, 21% and 3.52.
Consider `COCC(C)Oc1cc(Oc2ccc(S(C)(=O)=O)cc2)cc(C(=O)Nc2nc3c(s2)CN(c2ccccn2)CC3)c1` (stereo unspecified), for which, in experiment [1], the EC50 turned out to be 890 nM.
As for `CC(C)(C)OC(=O)N1CCc2nc(NC(=O)c3cc(OCc4ccccc4)cc(Oc4ccc(S(C)(=O)=O)cc4)c3)sc2C1`, the EC50 in experiment [1] was determined as 7000 nM. For the same compound, the Activity in experiment [2] is given as 21%. For the same compound, the “fold change (FC)” value in experiment [3] is “inactive”.
The like results for `COC[C@H](C)Oc1cc(Oc2cc(F)cc(F)c2)cc(C(=O)Nc2nc3c(s2)CN(C(=O)OC(C)(C)C)CC3)c1` were, in that order, 200 nM, 15% and 1.3.
For `COC[C@H](C)Oc1cc(Oc2ccc(C(=O)N3CCC3)cc2)cc(C(=O)Nc2nc3c(s2)CN(C(=O)OC)CC3)c1`, in that order: 690 nM, 16% and 5.68.
On to `COC[C@H](C)Oc1cc(Oc2ccc(C(=O)N3CCC3)cc2)cc(C(=O)Nc2nc3c(s2)N(C(=O)OC(C)(C)C)CCC3)c1`, for which the EC50 in experiment [1] was 6080 nM.
Still for that read-out and setting: the result for `C[C@@H](CO)Oc1cc(Oc2ccc(C(=O)N3CCC3)cc2)cc(C(=O)Nc2nc3c(s2)CN(C(=O)OC(C)(C)C)CC3)c1` reads 1300 nM.
On to `CC(C)(C)OC(=O)N1CCc2nc(NC(=O)c3cc(Oc4ccc(S(C)(=O)=O)cc4)cc(OC4CCCC4)c3)sc2C1`, for which, in experiment [1], the EC50 amounted to 180 nM. For the same compound, the Activity in experiment [2] turned out to be 26%. In addition, in experiment [3], the “fold change (FC)” value is “inactive”.
Regarding `COC[C@H](C)Oc1cc(Oc2ccc(C(=O)N3CCC3)c(F)c2)cc(C(=O)Nc2nc3c(s2)CN(C(=O)OC(C)(C)C)CC3)c1`, the EC50 in experiment [1] is 330 nM. Also, the Activity in experiment [2] is reported as 19%. The fold change (FC) in experiment [3] amounted to 1.1.
`COC[C@H](C)Oc1cc(Oc2ccc(C(=O)N3CCC3)cc2)cc(C(=O)Nc2nc3c(s2)CN(c2ncccn2)CC3)c1`: in experiment [1], the EC50 was 170 nM. In addition, the Activity in experiment [2] stood at 14%. The fold change (FC) in experiment [3] was found to be 6.51.
As to `COC[C@H](C)Oc1cc(Oc2ccc(C(=O)N3CCC3)cc2)cc(C(=O)Nc2nc3c(s2)CN(CCO)CC3)c1`, in experiment [1], the EC50 was found to be 4600 nM.
`COCC(C)Oc1cc(Oc2ccc(S(C)(=O)=O)nc2)cc(C(=O)Nc2nc3c(s2)CN(C(=O)OC(C)(C)C)CC3)c1` (stereo unspecified): the EC50 in experiment [1] was determined as 200 nM. Further, in experiment [2], the Activity stood at 35%. In experiment [3], the fold change (FC) is 1.42.
For `COCC(C)Oc1cc(Oc2ccc(S(=O)(=O)N3CCC3)cc2)cc(C(=O)Nc2nc3c(s2)CN(C(=O)OC(C)(C)C)CC3)c1` (stereo unspecified), the EC50 in experiment [1] is 900 nM. The outcome in experiment [2] was inactive. The fold change (FC) in experiment [3] is 1.37.
For `CCOC(=O)N1CCc2nc(NC(=O)c3cc(Oc4ccc(C(=O)N5CCC5)cc4)cc(O[C@@H](C)COC)c3)sc2C1`, in that order: 230 nM, 17% and 5.45.
For `COCC(C)Oc1cc(Oc2ccc(S(C)(=O)=O)cc2)cc(C(=O)Nc2nc3c(s2)CN(c2ccncc2)CC3)c1` (stereo unspecified), in that order: 210 nM, “inactive” and 1.3.
For the compound `COCC(C)Oc1cc(Oc2ccc(S(C)(=O)=O)cc2)cc(C(=O)Nc2nc3c(s2)C(=O)CCC3)c1` (stereo unspecified), the concentration giving a half-maximal response (EC50) in experiment [1] was more than 10000 nM.
For `COCC(C)Oc1cc(Oc2ccc(C(=O)N(C)C)cc2)cc(C(=O)Nc2nc3c(s2)CN(C(=O)OC(C)(C)C)CC3)c1` (stereo unspecified), in experiment [1], the EC50 amounted to 90 nM. For the same compound, in experiment [2], the outcome was inactive. The fold change (FC) in experiment [3] was 1.24.
Turning to `COCC(C)Oc1cc(Oc2ccc(S(C)(=O)=O)cc2)cc(C(=O)Nc2nc3c(s2)CN(C(C)C)CC3)c1` (stereo unspecified), in experiment [1], the EC50 worked out at 7080 nM.
The same measure, in the same setting: the result for `COCC(C)Oc1cc(Oc2ccc(S(C)(=O)=O)cc2)cc(C(=O)Nc2nc3c(s2)CN(C(C)=O)CC3)c1` (stereo unspecified) reads 2220 nM; that for `CCN1CCc2nc(NC(=O)c3cc(Oc4ccc(S(C)(=O)=O)cc4)cc(OC(C)COC)c3)sc2C1` (stereo unspecified), 5420 nM; that for `COCC(C)Oc1cc(Oc2ccc(S(C)(=O)=O)cc2)cc(C(=O)Nc2nc3c(s2)COCC3)c1` (stereo unspecified), more than 10000 nM.
